Assay results reported in patent US5679689A, “Quinolone- and naphthyridonecarboxylic acid derivatives” (Bayer Aktiengesellschaft, priority 1994, dated 1997).
Values after ≈ are worked out from the molar mass of the structure shown.

How the values were obtained:
Bac. fragilis ES 25 = experiment: Minimum inhibitory concentration (MIC), serial dilution on Iso-Sensitest Agar; type: cell-based; details: Bacteroides fragilis, ES25, 37° C., about 20 hours
Description: (§1) The minimum inhibitory concentration (MIC) were determined by a serial dilution method on Iso-Sensitest Agar (Oxoid). For each test substance, a number of agar plates were prepared which, with doubled dilution in each case, contained decreasing concentrations of the active compound. The agar plates were inoculated using a multipoint inoculator (Denley). For inoculation, overnight cultures of the pathogens were used which had previously been diluted such that each inoculation point contained about […] colony-forming particles. The inoculated agar plates were incubated at 37° C. and the microorganism growth was read off after about 20 hours. The MIC value (μg/ml) indicates the lowest active compound concentration at which no growth could be detected using the naked eye.

Staph. aureus 133 = experiment: as above; type: cell-based; details: Staphylococcus aureus, 37° C., about 20 hours
Description: as §1

Ps. aeruginosa Walter = experiment: as above; type: cell-based; details: Pseudomonas aeruginosa, 37° C., about 20 hours
Description: as §1

Staph. aureus ICB 25701 = experiment: as above; type: cell-based; details: Staphylococcus aureus, ICB25701, 37° C., about 20 hours
Description: (§2) In the following Tables 9 and 10, the minimum inhibitory concentration are shown as a measure of the antibacterial activity and the ID50 values as a measure of the interactions with mammalian DNA of a substance both for compounds according to the invention and for reference compounds from the prior art (EP 520 240).
as §1

E. coli Neumann = experiment: as above; type: cell-based; details: Escherichia coli, 37° C., about 20 hours
Description: as §2, §1

[1] = Inhibition of DNA synthesis in CHO-KI cells (interaction with mammalian DNA), fluorophotometric; type: cell-based, Chinese hamster; details: hamster, cho-k1 cells; concentration at which DNA synthesis in CHO-KI cells is inhibited by 50%; read-out: ID50 (the source's name)
Description: as §2
ID50 is understood as meaning the concentration of a substance at which the DNA synthesis in cells from ovaries of the Chinese hamster (CHO-KI) is inhibited by 50%. This value is determined over defined time intervals in decreasing dilution steps after incubation of the appropriate substances. To do this, the DNA synthesis in CHO-KI cells is determined in comparison to controls by means of fluorophotometric methods.

Structure (SMILES) | MIC (Bac. fragilis ES 25) [µg/mL] | MIC (Staph. aureus 133) [µg/mL] | MIC (Ps. aeruginosa Walter) [µg/mL] | MIC (Staph. aureus ICB 25701) [µg/mL] | MIC (E. coli Neumann) [µg/mL] | IC50 [1] [µg/mL]
NC12C=CC=CC1CN(c1c(F)cc3c(=O)c(C(=O)O)cn(C4CC4)c3c1F)C2 (stereo not drawn) [Example 2, 7-(3a-amino-1,2,3,7a-tetrahydroisoindol-2-yl)-1-cyclopropyl-6,8-difluoro-1,4-dihydro-4-oxo-3-quinolinecarboxylic acid] | 1 (≈ 2.5 µM) | 0.06 (≈ 0.15 µM) | 1 (≈ 2.5 µM) | 2 (≈ 5.01 µM) | ≤ 0.015 | 32 (≈ 80.1 µM)
NC12C=CC=CC1CN(c1c(F)cc3c(=O)c(C(=O)O)cn(C4CC4)c3c1Cl)C2 (stereo not drawn) [Example 3, 7-(3a-amino-1,2,3,7a-tetrahydro-isoindol-2-yl)-8-chloro-1-cyclopropyl-6-fluoro-1,4-dihydro-4-oxo-3-quinolineearboxylic acid] | 0.125 (≈ 0.301 µM) | ≤ 0.015 | 0.5 (≈ 1.2 µM) | 0.25 (≈ 0.601 µM) | ≤ 0.015 | 32 (≈ 77 µM)
COc1c(N2CC3C=CC=CC3(N)C2)c(F)cc2c(=O)c(C(=O)O)cn(C3CC3)c12 (stereo not drawn) [Example 4, 7-(3a-amino-1,2,3,7a-tetrahydro-isoindolo2-yl)-1-cyclopropyl-6-fluoro-1,4-dihydro-8-methoxy-4-oxo-3-quinolinecarboxylic acid] | 2 (≈ 4.86 µM) | ≤ 0.015 | 0.5 (≈ 1.22 µM) | 0.5 (≈ 1.22 µM) | ≤ 0.015 | > 64
NC12C=CC=CC1CN(c1c(F)cc3c(=O)c(C(=O)O)cn([C@@H]4C[C@@H]4F)c3c1F)C2 (stereo partly drawn) [Example 8, 7-(3a-amino-1,2,3,7a-tetrahydro-isoindol-2-yl)-6,8-difluoro-1-(cis-2-fluorocydopropyl)-1,4-dihydro-4-oxo-3-quinolineearboxylic acid] | 0.5 (≈ 1.2 µM) | 0.03 (≈ 0.0719 µM) | 0.5 (≈ 1.2 µM) | 0.5 (≈ 1.2 µM) | ≤ 0.015 | 16 (≈ 38.3 µM)
NC12C=CC=CC1CN(c1nc3c(cc1F)c(=O)c(C(=O)O)cn3C1CC1)C2 (stereo not drawn) [Example 9, 7-(3a-amino-1,2,3,7a-tetrahydro-isoindol-2-yl)-1-cyclopropyl-6-fluoro-1,4-dihydro-4-oxo-1,8-naphthyridine-3-carboxylic acid] | 4 (≈ 10.5 µM) | 0.06 (≈ 0.157 µM) | 1 (≈ 2.62 µM) | 8 (≈ 20.9 µM) | ≤ 0.015 | 32 (≈ 83.7 µM)
CC1C=CC(N)C2CN(c3c(F)cc4c(=O)c(C(=O)O)cn(C5CC5)c4c3F)CC12 (stereo not drawn) [Ref. 1, 7(4-Amino-7-methyl-1,3,3a,4,7,7a-hexahydro-isoindol-2-yl)-1-cyclopropyl-6 8-difluoro-1,4-dihydro-4-oxo-3-quinolinecarboxylic acid, reference compound] | 0.5 (≈ 1.2 µM) | 0.015 (≈ 0.0361 µM) | 0.5 (≈ 1.2 µM) | 0.06 (≈ 0.144 µM) | 0.015 (≈ 0.0361 µM) | 0.015 (≈ 0.0361 µM)
COc1c(N2CC3C(C)C=CC(N)C3C2)c(F)cc2c(=O)c(C(=O)O)cn(C3CC3)c12 (stereo not drawn) [Ref. 2, 7(4-Amino-7-methyl-1,3,3a,4,7,7a-hexahydro-isoindol-2-yl)-1-cyclopropyl-6 fluoro-1,4-dihydro-8-methoxy-4-oxo-3-quinolinecarboxylic acid, reference compound] | 0.25 (≈ 0.585 µM) | 0.015 (≈ 0.0351 µM) | 1 (≈ 2.34 µM) | 0.015 (≈ 0.0351 µM) | 0.015 (≈ 0.0351 µM) | 0.1 (≈ 0.234 µM)
CC1C=CC(N)C2CN(c3c(F)cc4c(=O)c(C(=O)O)cn(C5CC5)c4c3Cl)CC12 (stereo not drawn) [Ref. 3, 7(4-Amino-7-methyl-1,3,3a,4,7,7a-hexahydro-isoindol-2-yl)-8-chloro-1-cycl propyl-6-fluoro-1,4-dihydro-4-oxo-3-quinolinecarboxylic acid, reference compound] | 0.125 (≈ 0.289 µM) | 0.015 (≈ 0.0347 µM) | 0.5 (≈ 1.16 µM) | 0.015 (≈ 0.0347 µM) | 0.015 (≈ 0.0347 µM) | 0.1 (≈ 0.232 µM)
